# Data published in ChEMBL document CHEMBL4732067, “Synthesis and evaluation of new compounds bearing 3-(4-aminopiperidin-1-yl)methyl magnolol scaffold as anticancer agents for the treatment of non-small cell lung cancer via targeting autophagy” (Eur J Med Chem, 2021).
# What was measured:
# HCC827 = assay: Antiproliferative activity against human HCC827 cells assessed as reduction in cell viability after 72 hrs by MTT assay; format: functional, cell-based; conditions: HCC827, 72 h
# NCI-H460 = assay: Antiproliferative activity against human NCI-H460 cells assessed as reduction in cell viability after 72 hrs by MTT assay; format: functional, cell-based; conditions: NCI-H460, 72 h
# NCI-H1975 = assay: Antiproliferative activity against human NCI-H1975 cells assessed as reduction in cell viability after 72 hrs by MTT assay; format: functional, cell-based; conditions: NCI-H1975, 72 h
# [1] = Antiproliferative activity against human SPCA1 cells expressing wild type EGFR assessed as reduction in cell viability after 72 hrs by MTT assay; format: functional, cell-based; conditions: SPCA1, 72 h
# [2] = Metabolic stability in human liver microsomes assessed as half life; format: ADME, Microsome
# [3] = Metabolic stability in human liver microsomes assessed as intrinsic clearance per gram protein; format: ADME, Microsome
# A549 = assay: Antiproliferative activity against human A549 cells expressing wild type EGFR assessed as reduction in cell viability after 72 hrs by MTT assay; format: functional, cell-based; conditions: A549, 72 h
# NCI-H1650 = assay: Antiproliferative activity against human NCI-H1650 cells expressing EGFR mutant assessed as reduction in cell viability after 72 hrs by MTT assay; format: functional, cell-based; conditions: NCI-H1650, 72 h
# NCI-H441 = assay: Antiproliferative activity against human NCI-H441 cells […] assessed as reduction in cell viability after 72 hrs by MTT assay; format: functional, cell-based; conditions: NCI-H441, 72 h
# L929 = assay: Cytotoxicity against mouse L929 cells; format: cell-based
SMILES,IC50 (HCC827) [µM],IC50 (NCI-H460) [µM],IC50 (NCI-H1975) [µM],IC50 [1] [µM],half-life [2] [h],CLint [3] [mL/min/g],IC50 (A549) [µM],IC50 (NCI-H1650) [µM],IC50 (NCI-H441) [µM],IC50 (L929) [µM]
C=CCc1ccc(OCCO)c(-c2cc(CC=C)cc(CN3CCC(N)CC3)c2O)c1,4.34,6.16,6.84,,,,,,,
C=CCc1ccc(O)c(-c2cc(CC=C)cc(CN3CCC(NC(=O)[C@H](N)c4ccccc4)CC3)c2O)c1,5.89,6.43,6.85,,,,,,,
C=CCc1ccc(O)c(-c2cc(CC=C)cc(CN3CCC(NC(=O)[C@H]4CCCN4)CC3)c2O)c1,> 20,> 20,> 20,,,,,,,
C=CCc1ccc(O)c(-c2cc(CC=C)ccc2O)c1 [MAGNOLOL],94.7,95.6,87.3,92.5,0.245,94,82.4,66.3,65.8,
C=CCc1ccc(OCC)c(-c2cc(CC=C)cc(CN3CCC(NC(=O)[C@@H](N)CO)CC3)c2O)c1,5.42,6.15,6.98,,,,,,,
C=CCCCCOc1ccc(CC=C)cc1-c1cc(CC=C)cc(CN2CCC(N)CC2)c1O,4.48,6.88,14,,,,,,,
C=CCc1ccc(O)c(-c2cc(CC=C)cc(CN3CCC(NC(=O)[C@H](N)CO)CC3)c2O)c1,9.05,8.32,10.3,,,,,,,
C=CCc1ccc(O)c(-c2cc(CC=C)cc(CN3CCC(NC(=O)[C@@H](N)CCSC)CC3)c2O)c1,> 20,> 20,> 20,,,,,,,
C=CCc1ccc(O)c(-c2cc(CC=C)cc(CN3CCC(NC(=O)[C@H](C)N)CC3)c2O)c1,> 20,17.3,> 20,,,,,,,
C=CCc1ccc(OCC)c(-c2cc(CC=C)cc(CN3CCC(N)CC3)c2OCC)c1,2.12,3.64,3.45,,,,,,,
C=CCc1ccc(OCC2CCCO2)c(-c2cc(CC=C)cc(CN3CCC(N)CC3)c2O)c1 (stereo not drawn),2.44,2.76,5.72,,,,,,,
C=CCc1ccc(OCC)c(-c2cc(CC=C)cc(CN3CCC(NC(=O)[C@H](N)c4ccccc4)CC3)c2O)c1,1.23,1.46,7.31,,,,,,,
C=CCc1ccc(OCCCO)c(-c2cc(CC=C)cc(CN3CCC(N)CC3)c2O)c1,6.29,6.66,6.98,,,,,,,
C=CCc1ccc(O)c(-c2cc(CC=C)cc(CN3CCCC3)c2O)c1,> 20,> 20,> 20,,,,,,,
C=CCc1ccc(OCCCCOC(C)=O)c(-c2cc(CC=C)cc(CN3CCC(N)CC3)c2O)c1,> 20,> 20,> 20,,,,,,,
C=CCc1ccc(OC2CCCC2)c(-c2cc(CC=C)cc(CN3CCC(N)CC3)c2O)c1,3.51,5.85,6.37,,,,,,,
C=CCc1ccc(O)c(-c2cc(CC=C)cc(CN3CCC(NC(=O)[C@@H](N)c4ccccc4)CC3)c2O)c1,12.3,15.8,15.9,,,,,,,
C=CCc1ccc(OCCCCCOC(C)=O)c(-c2cc(CC=C)cc(CN3CCC(N)CC3)c2OCCCCCOC(C)=O)c1,> 20,> 20,> 20,,,,,,,
C#CCOc1ccc(CC=C)cc1-c1cc(CC=C)cc(CN2CCC(N)CC2)c1O,> 20,> 20,> 20,,,,,,,
C=CCc1ccc(OCCC)c(-c2cc(CC=C)cc(CN3CCC(N)CC3)c2O)c1,5.27,4.85,4.97,,,,,,,
C=CCc1ccc(OCC)c(-c2cc(CC=C)cc(CN3CCC(N)CC3)c2O)c1,0.94,1.26,1.43,3.46,2.17,10.7,3.05,4.15,2.98,1.78
C=CCc1ccc(O)c(-c2cc(CC=C)cc(CN3CCC(NC(=O)[C@H](N)CCSC)CC3)c2O)c1,> 20,> 20,> 20,,,,,,,
C=CCc1ccc(O)c(-c2cc(CC=C)cc(CN3CCC(NC(=O)CCCCCN)CC3)c2O)c1,> 20,> 20,> 20,,,,,,,
C=CCc1ccc(O)c(-c2cc(CC=C)cc(Cn3ccc(N)n3)c2O)c1,16.2,> 20,> 20,,,,,,,
C=CCc1ccc(O)c(-c2cc(CC=C)cc(CN3CCC(NC(=O)[C@@H](C)N)CC3)c2O)c1,> 20,> 20,> 20,,,,,,,
